In ChEMBL document CHEMBL4049432, “Structure-Guided Discovery of Potent and Selective Inhibitors of ERK1/2 from a Modestly Active and Promiscuous Chemical Start Point” (J Med Chem, 2017):

Assays:
[1] = Octanol-aqueous phosphate buffer distribution coefficient, log D of the compound at pH 7.4; assay type: physicochemical
[2] = Volume of distribution at steady state in rat plasma; assay type: ADME; settings: read-out: Vdss
[3] = Volume of distribution at steady state in dog plasma; assay type: ADME, Canis lupus familiaris; settings: read-out: Vdss
[4] = Oral bioavailability in rat; assay type: ADME, organism-based; settings: in vivo
[5] = Oral bioavailability in dog; assay type: ADME, organism-based, Canis lupus familiaris; settings: in vivo

logD [1]	Compound	further results
1.8	COCCN1C(=O)c2cc(-c3ccnc(Nc4ccnn4C)n3)[nH]c2C[C@@H]1C	
2.14	COCCN1C(=O)c2cc(-c3nc(Nc4ccnn4C)ncc3C)[nH]c2C[C@H]1C	
1.4	COCCN1CCc2[nH]c(-c3ccnc(Nc4ccnn4C)n3)cc2C1=O	
1.6	COCCN1CCc2[nH]c(-c3ccnc(NC4CCOCC4)n3)cc2C1=O	
1.7	COCCN1C(=O)c2cc(-c3nc(Nc4ccnn4C)ncc3C)cn2C[C@H]1C	
2.11	COCCN1C(=O)c2cc(-c3nc(Nc4ccnn4C)ncc3C)[nH]c2C[C@@H]1C	
1.7	COCCN1C(=O)c2cc(-c3ccnc(Nc4ccnn4C)n3)[nH]c2C[C@H]1C	
1.3	COCCN1CCn2cc(-c3nc(Nc4ccnn4C)ncc3C)cc2C1=O	
1.6	COCCN1C(=O)c2cc(-c3nc(Nc4ccnn4C)ncc3C)cn2C[C@@H]1C	
2.3	Cc1cccc(CN2C(=O)c3cc(-c4ccnc(Nc5ccnn5C)n4)cn3CC2C)n1 (single isomer, unassigned; isomer 2)	

Second part, the compound before the results:

Compound	logD [1]	further results
Cc1cccc(CN2CCc3[nH]c(-c4ccnc(NC5CCOCC5)n4)cc3C2=O)n1	2.4	
CN1CCc2[nH]c(-c3ccnc(NC4CCOCC4)n3)cc2C1=O	1.6	
Cc1cccc(CN2C(=O)c3cc(-c4nc(Nc5ccnn5C)ncc4C)cn3C[C@H]2C)n1		Vd [2]: 1.3 L/kg; Vd [3]: 0.9 L/kg; bioavailability [4]: 31%; bioavailability [5]: 87%
O=C1NCCn2cc(-c3ccnc(NC4CCOCC4)n3)cc21	0.75	
O=C1c2cc(-c3ccnc(NC4CCOCC4)n3)[nH]c2CCN1[C@H](CO)c1ccccc1	2.6	
Cn1c(-c2ccnc(NC3CCOCC3)n2)cc2c1CCNC2=O	1.3	
O=C1NCCc2[nH]c(-c3ccnc(NC4CCOCC4)n3)cc21	1.3	
COCCN1CCc2c(cc(-c3ccnc(NC4CCOCC4)n3)n2C)C1=O	1.7	
O=C1c2cc(-c3ccnc(NC4CCOCC4)n3)[nH]c2CCN1[C@H](CO)c1ccc(F)c(Cl)c1	3.6	
O=C1c2cc(-c3ccnc(NC4CCOCC4)n3)[nH]c2CCN1Cc1ccccc1	3.2	
O=C1c2cc(-c3ccnc(NC4CCOCC4)n3)[nH]c2CCN1[C@H](CO)c1ccc(Cl)c(F)c1	3.5	
Cc1cccc(CN2CCn3cc(-c4nc(Nc5ccnn5C)ncc4C)cc3C2=O)n1	2.2	
Cn1c(-c2ccnc(NC3CCOCC3)n2)cc2c1CCN(Cc1ccccc1)C2=O	3.3	
CN1CCN(c2ccc(Nc3nccc(-c4cc5c([nH]4)CCNC5=O)n3)cc2)CC1	1.5	
